# Laboratory results as given in PubChem BioAssay (NCI).
#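 Where inhibition never reached the appropriate level, the endpoint shown equals the highest concentration tested. Otherwise, values were interpolated linearly from a five-concentration, 48-hour dose response in 96-well plates. The concentration for 50% growth inhibition is given as GI50. Definition used: TGI = concentration required for complete inhibition of growth.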
# Legend:
# Assay in all cases: DTP human tumour cell line panel, 48 h
# UO-31 renal = test system: UO-31 renal
# UACC-62 melanoma = test system: UACC-62 melanoma
# MALME-3M melanoma = test system: MALME-3M melanoma
# UACC-257 melanoma = test system: UACC-257 melanoma
# SW-620 colon = test system: SW-620 colon
# HCC-2998 colon = test system: HCC-2998 colon
# A498 renal = test system: A498 renal
# HCT-15 colon = test system: HCT-15 colon
Compound,GI50 (UO-31 renal) [µM],TGI (UO-31 renal) [µM],GI50 (UACC-62 melanoma) [µM],TGI (UACC-62 melanoma) [µM],GI50 (MALME-3M melanoma) [µM],TGI (MALME-3M melanoma) [µM],GI50 (UACC-257 melanoma) [µM],TGI (UACC-257 melanoma) [µM],GI50 (SW-620 colon) [µM],TGI (SW-620 colon) [µM],GI50 (HCC-2998 colon) [µM],TGI (HCC-2998 colon) [µM],GI50 (A498 renal) [µM],TGI (A498 renal) [µM],GI50 (HCT-15 colon) [µM],TGI (HCT-15 colon) [µM]
C#CCOc1cccc(Nc2ncnc3ccc(NC(=O)CCl)cc23)c1,0.312,7.11,1.65,20.3,3.46,8.63,7.49,26,0.0614,5.88,3.71,22.7,4.6,21.4,0.0709,15.1
CC(=O)[O][Hg][c]1ccccc1,1.23,2.54,0.587,1.91,0.506,1.62,0.908,2.18,0.215,0.492,1.64,3.11,1.11,2.37,0.277,0.877
O=C(O)C1(Cc2cccc(Nc3nccs3)n2)CCC(Oc2cccc(Cl)c2F)CC1 (stereo unspecified),16.3,79.8,,,20.5,54.3,31.6,> 81.1,4.31,> 58.9,18.2,34.2,3.95,19.4,3.34,25.2
COc1ccc(-c2cc(=O)c3c(O)cc(C)cc3o2)cc1OC,,> 100,,> 100,,> 100,,> 100,,> 100,,> 100,,,,> 100
CC/C(C)=C1\OC(=O)C(C)C(O)C(Cc2cccnc2)NC(=O)C(NC(=O)c2ncccc2O)C(C)OC1=O (stereo unspecified),,,,> 100,,> 100,,> 100,,> 100,,> 100,,> 100,,> 100
O=C1C(Cl)=C(Nc2cccc(O)c2)C(=O)N1c1ccccc1Cl,32.5,> 100,19.6,62.3,10.9,69.1,,,52.3,> 100,,,,,35.2,> 100
C/C(Cc1ccc(Cl)cc1)=C(/c1ccc(Cl)cc1)c1ccc(OCCN(C)C)cc1,4.27,8.65,5.19,9.75,3.68,8.63,4.24,9.38,1.67,6.1,2.03,6.7,,,1.19,4.27
COc1cnc2c(c1)C(=O)c1c-2n(CCCN2CCCC2)c(=O)c2cc(F)ccc12,0.152,1.04,0.471,2.21,0.452,1.73,0.396,2.2,0.199,2.27,2.65,20.7,0.344,1.65,0.283,1.98
CC(=O)[O-].O=C([CH-]C(=O)c1ccccc1)c1ccccc1.O=C([CH-]C(=O)c1ccccc1)c1ccccc1.[Y+3],3.84,9.66,3.8,17.8,8.02,39.5,9.8,31.7,6.18,46,5.72,19.7,16.7,41.1,5.45,26.7
